Where two headings read alike, the source gives them in different places. Ends that are not written are not given here.

In data set [1] the test system is mouse paced right ventricle. As to the kind of experiment: Inotropic action in mouse paced right ventricle. The note with it: mouse paced RV, n = 6 (isoprenaline n = 4). As to the method:
(§1) Vascular smooth muscle apelin receptor-mediated contraction was exploited in a bioassay to compare the in vitro potency of apelin peptides. […] Agonist responses were expressed as a % of a terminal response to KCl (100 mmol/L). […] Data were expressed as % of the terminal response to CaCl2. Data from vascular and cardiac experiments were analyzed using a 4-prameter logistic curve (GraphPad Prism 6) to determine values of pD2 and EMAX.

For data set [2], the target named is T1, recombinant human ACE2 (Homo sapiens, UniProt Q9BYF1).
T1 construct: purchased GSK, Ware, UK
T1 sequence (Q9BYF1 18-740 limits assumed): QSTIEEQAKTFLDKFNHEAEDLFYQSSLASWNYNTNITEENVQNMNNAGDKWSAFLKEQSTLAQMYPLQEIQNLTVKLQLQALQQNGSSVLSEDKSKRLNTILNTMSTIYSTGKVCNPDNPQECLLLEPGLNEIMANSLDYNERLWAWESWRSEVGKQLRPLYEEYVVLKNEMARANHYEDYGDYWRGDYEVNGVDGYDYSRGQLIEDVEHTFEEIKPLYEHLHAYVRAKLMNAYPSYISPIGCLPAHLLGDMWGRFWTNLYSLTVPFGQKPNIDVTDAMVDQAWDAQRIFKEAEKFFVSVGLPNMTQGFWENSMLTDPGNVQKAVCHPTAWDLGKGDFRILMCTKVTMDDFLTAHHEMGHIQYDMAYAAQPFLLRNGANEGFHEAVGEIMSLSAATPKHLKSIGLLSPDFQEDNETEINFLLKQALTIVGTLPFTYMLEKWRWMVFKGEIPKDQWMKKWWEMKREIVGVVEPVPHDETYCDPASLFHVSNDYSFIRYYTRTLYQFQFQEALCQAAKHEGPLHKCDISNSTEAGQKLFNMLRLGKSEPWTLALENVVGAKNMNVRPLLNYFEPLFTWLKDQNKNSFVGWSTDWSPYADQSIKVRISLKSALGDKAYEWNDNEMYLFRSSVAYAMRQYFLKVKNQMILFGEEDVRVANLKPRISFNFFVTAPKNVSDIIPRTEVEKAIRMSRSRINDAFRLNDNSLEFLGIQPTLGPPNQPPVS
As to the kind of experiment: Incubation with rhACE2, Maldi-TOF mass spectrometry. In kind it is in vitro ADME. The note with it: 5 nmol peptide, 5 pmol rhACE2, MES buffer pH 6.5, 2 h, 37°C, Maldi-TOF read-out. Here is the method:
The reaction mixture was analyzed by Maldi-TOF mass spectrometry after samples were desalted using Millipore μC18ZipTip (MA, USA), washed with 5% acetic acid and eluted with CHCA matrix (in 50% aqueous acetonitrile containing 0.1% trifluoroacetic acid) to a stainless steel sample slide. Samples were air dried and analyzed using a Waters Maldi MicroMX time-of-flight mass spectrometer (MA, USA). Calibration was external using polyethylene glycol. The 10 Hz-laser power was just above threshold. The spectra were the sum of 1,000 shots collected from a spiral track of the sample area. Data were processed using Waters MassLynx software (MA, USA).

For data set [3] the following is noted: cited from earlier work. The source says: Apelins are modulators of vascular tone and cardiac contractility in vitro and in vivo (Japp et al., [2008], [2010]; Maguire et al., [2009]; Barnes et al., [2013]; Brame et al., [2015]).
For data set [4], the target named is T2, vascular smooth muscle apelin receptor (Homo sapiens, UniProt P35414).
T2 construct: from tissue; host or cells: endothelium-denuded human saphenous vein
T2 sequence (P35414 1-380): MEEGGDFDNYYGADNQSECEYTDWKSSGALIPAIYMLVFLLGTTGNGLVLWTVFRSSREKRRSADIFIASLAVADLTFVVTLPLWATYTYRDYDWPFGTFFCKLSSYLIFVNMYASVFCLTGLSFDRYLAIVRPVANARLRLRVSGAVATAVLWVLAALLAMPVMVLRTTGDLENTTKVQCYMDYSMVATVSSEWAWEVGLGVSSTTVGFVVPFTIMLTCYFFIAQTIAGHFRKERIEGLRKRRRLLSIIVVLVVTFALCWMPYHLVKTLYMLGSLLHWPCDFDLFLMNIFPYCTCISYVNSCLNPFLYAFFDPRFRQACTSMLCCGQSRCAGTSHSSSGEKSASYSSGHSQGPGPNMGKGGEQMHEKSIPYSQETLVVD
As to the kind of experiment: Contraction of endothelium-denuded human saphenous vein. The note with it: n = 9; for Emax: % of terminal response to KCl (100 mmol/L). Here is the method: as §1

Data set [5] relates to rhACE2. The data set can be described thus: rhACE2 enzyme (5 pmol, GSK) in buffer (pH 6.5) containing MES (500 mmol/L), NaCl (300 mmol/L) and ZnCl2 (10 μmol/L). As to conditions: human, 37°C, up to 2 h.
The target of data set [6] is T3, apelin receptor (Homo sapiens, UniProt P35414).
T3 sequence (P35414 1-380): T2 sequence (P35414 1-380)
The data set can be described thus: β-arrestin assay without and with pre-incubation with rhACE2. In kind it is cell-based. Here is the method:
(§2) Inhibition of cAMP accumulation, β-arrestin recruitment and receptor internalization by apelin isoforms, modified and truncated apelin peptides were studied using cells expressing the human apelin receptor (DiscoverX, CA, USA) as per the manufacturer's instructions. In all assays the resulting chemiluminescent signal was measured as relative light units (RLU) using a LumiLITE™ Microplate Reader (DiscoveRx, Fremont, CA). […] Agonist responses were expressed as a % of the forskolin response. […] Data were analyzed using a 4-parameter logistic equation using GraphPad Prism 6 to determine values of potency, pD2 (−log10 EC50, where EC50 is the concentration producing half maximal response) and maximum response (EMAX). n-Values are given as number of replicates/number of experiments.

For data set [7], the target named is T3, apelin receptor. The data set can be described thus: Competition binding with [Glp65,Nle75,Tyr77][125I]apelin-13 in human left ventricle homogenate. Also on record: from tissue; host or cells: human left ventricle homogenate. As to the method:
Assays were performed in human heart as previously described (Brame et al., [2015]). […] Equilibrium was broken by centrifugation (20,000 g for 10 min, 4°C) and pellets washed with Tris-HCl buffer (50 mmol/L, pH 7.4, 4°C), re-centrifuged and pellets counted for detection of bound radioactivity. Competition binding data were analyzed using GraphPad Prism 6 (GraphPad Software, Inc. La Jolla, CA, USA) to obtain values of pKi (the negative log10 of the dissociation constant derived from the IC50 for the competing ligands, the radioligand concentration and radioligand affinity by the Cheng and Prusoff equation). Experiments were performed in triplicate.
Measurements are mean ± standard error of the mean (SEM). […] Cell assay pD2 values were compared by one-way ANOVA followed by Tukey's multiple comparison test.

The target of data set [8] is T3, apelin receptor. The data set can be described thus: β-arrestin recruitment assay (DiscoverX). The note with it: cells expressing human apelin receptor, mean ± SEM, n = replicates/experiments, read-out: pD2, β-arrestin recruitment (converted). It is filed as cell-based. As to the method: as §2
In general terms: Arrestin recruitment assays detect the binding of arrestin to an activated receptor.

In data set [9] the target is T3, apelin receptor. As to the kind of experiment: Receptor internalization assay (DiscoverX). It is filed as cell-based. As to the method:
as §2

The conditions of data set [10]: human, in vivo. As to the method: Studies were performed in healthy volunteers (n = 12) in the University of Cambridge Vascular Research Unit, Addenbrooke's Hospital, Cambridge, UK. This study was carried out in accordance with the recommendations of the National Research Ethics Service Committee East of England-Cambridge Central with written informed consent from all subjects. All subjects gave written informed consent in accordance with the Declaration of Helsinki. The protocol was approved by the National Research Ethics Service Committee East of England-Cambridge Central (REC 11/EE/0305).
Exclusion criteria were ischemic heart disease, respiratory, renal or neurological disease, diabetes mellitus, hypertension, BMI > 30, BMI <18; smoker; pregnant; use of vasoactive medication or NSAIDS/aspirin within 48 h of study; current involvement in other research studies. An Omron HEM705CP oscillimetric sphygmomanometer was used to measure blood pressure and heart rate at baseline and then every 6 min in the contralateral arm. Periodically, a cuff around the upper arm was inflated for ~8 s to 40 mmHg then deflated for 4 s to interrupt venous return and during a 3 min measurement hand circulation was excluded by inflation of wrist cuffs to 200 mmHg. Changes in forearm volume were measured by mercury-in-silastic strain gauge with FBF subsequently expressed as ml/100 ml forearm volume per min. […]

For data set [11], the target named is T3, apelin receptor. As to the kind of experiment: Inhibition of forskolin-stimulated cAMP accumulation (DiscoverX). In kind it is cell-based. As to conditions: 15 μmol/L forskolin, cells expressing human apelin receptor, mean ± SEM, n = replicates/experiments, read-out: pD2, inhibition of forskolin-stimulated cAMP (converted). As to the method: as §2
For orientation: cAMP levels reflect the balance of adenylyl cyclase and phosphodiesterase activity.

Data set [12] can be described thus: rat in vivo. The note with it: cited from earlier work.

As for `CC(C)NCC(O)c1ccc(O)c(O)c1` (stereo not shown) [isoprenaline], the EC50 in data set [1] (mean ± SEM, SEM, read-out: pD2, increase in force of contraction (converted)) is 13.2 nM. Besides, the “EMAX, increase in force of contraction” value in data set [1] is 78 ± 17 % CaCl2.
As to `CSCC[C@H](NC(=O)[C@@H]1CCCN1C(=O)CNC(=O)[C@H](CCCCN)NC(=O)[C@H](Cc1cnc[nH]1)NC(=O)[C@H](CO)NC(=O)[C@H](CC(C)C)NC(=O)[C@H](CCCNC(=N)N)NC(=O)[C@@H]1CCCN1C(=O)[C@H](CCCNC(=N)N)NC(=O)[C@@H]1CCC(=O)N1)C(=O)N1CCC[C@H]1C(=O)N[C@@H](Cc1ccccc1)C(=O)O` [[Pyr^1]apelin-13], the “result of incubation with rhACE2” value in data set [2] was “de novo generation of [Pyr^1]apelin-13(1–12), with a weak signal representing the remaining parent peptide”. For the same compound, the half-life result in [3] (humans, ref Japp et al., 2008) is on record as “less than 8 min”; in [3] (rat, ref Brame et al., 2015), “less than 3 min”.
With `CSCC[C@H](NC(=O)[C@@H]1CCCN1C(=O)CNC(=O)[C@H](CCCCN)NC(=O)[C@H](Cc1c[nH]cn1)NC(=O)[C@H](CO)NC(=O)[C@H](CC(C)C)NC(=O)[C@H](CCCNC(=N)N)NC(=O)[C@@H]1CCCN1C(=O)[C@H](CCCNC(=N)N)NC(=O)[C@@H](N)CCC(N)=O)C(=O)N1CCC[C@H]1C(=O)N[C@@H](C)C(=O)O` [apelin-13(F13A), reference compound], in data set [4], the Emax turned out to be 23 ± 4%.
On to “pGlu-Arg-Pro-Arg-Leu-Ser-His-Lys-Gly-Pro-Met-Pro”, for which the not cleaved entry in [5] was “did not produce shorter apelin fragments (2 h)”.
On to `CSCC[C@H](NC(=O)[C@@H]1CCCN1C(=O)CNC(=O)[C@H](CCCCN)NC(=O)[C@H](Cc1c[nH]cn1)NC(=O)[C@H](CO)NC(=O)[C@H](CC(C)C)NC(=O)[C@H](CCCNC(=N)N)NC(=O)[C@@H]1CCCN1C(=O)[C@H](CCCNC(=N)N)NC(=O)[C@@H]1CCC(=O)N1)C(=O)N1CCC[C@H]1C(=O)O` [[Pyr^1]apelin-13(1–12)], for which, in [6] (without or with pre-incubation with rhACE2), the “EMAX (% [Pyr^1]apelin-13)” value is 98 ± 5 % [Pyr^1]apelin-13. Besides, the EC50 was 53.7 nM in [6] (without or with pre-incubation with rhACE2 (2 h, 37°C), mean ± SEM, SEM, read-out: Potency (pD2) (converted)); 14.5 nM in [8]; 6.46 nM in data set [9] (mean ± SEM, SEM, read-out: pD2, receptor internalization (converted)); 0.501 nM in data set [11]; 0.234 nM in data set [4] (endothelium-denuded human saphenous vein, mean ± SEM, SEM, read-out: pD2, contraction of saphenous vein (converted)). In data set [7] (0.1 nmol/L radioligand, 90 min, 22°C, pH 7.4, Cheng-Prusoff, mean ± SEM, n = 3, SEM), this compound had a Ki of 9.12 nM. Further, the Emax came out at 97 ± 2% in data set [9] and 24 ± 6% in [4]. In [10], the “effect on heart rate or blood pressure” value is given as “No significant effects”.
As to “pGlu-Arg-Pro-Arg-Leu-Ser-His-Lys-Gly-Pro-Met-Pro-Phe”, the cleaved bond result in data set [5] is “Pro12-Phe13, 2 h”; in data set [12] it was “Pro12-Phe13, minor”.
Turning to RPRLSHKGPM [apelin-13(R10M)], the “% of specific binding competed for” value in [7] (single concentration 1 μM peptide) is on record as 100%. Further, the EC50 in data set [8] was 5.5 nM; in data set [11], 2 nM.

As a reminder, the Emax is the size of the effect at its maximum, as opposed to the concentration needed. Broadly, the Ki is a dissociation constant, usually derived from enzyme kinetics or from competition with a known ligand. A higher Ki goes with weaker binding.
